Assay results: patent publication US7998982B2, “Amide derivatives as TRPV1 antagonists” (Abbott Laboratories, priority 2007, dated 2011)

The compounds below were run against T1, human TRPV1 receptor (Homo sapiens, UniProt Q8NER1) (assay: Ca2+ influx assay (FLIPR, Fluo-4 AM) of capsaicin-evoked response in cells expressing recombinant TRPV1). Conditions: 1321N1 human astrocytoma cells expressing hTRPV1; inhibition of 0.05 μM capsaicin-induced [Ca2+]i increase.
T1 construct: expressed in transfected cells
T1 sequence (Q8NER1 whole entry): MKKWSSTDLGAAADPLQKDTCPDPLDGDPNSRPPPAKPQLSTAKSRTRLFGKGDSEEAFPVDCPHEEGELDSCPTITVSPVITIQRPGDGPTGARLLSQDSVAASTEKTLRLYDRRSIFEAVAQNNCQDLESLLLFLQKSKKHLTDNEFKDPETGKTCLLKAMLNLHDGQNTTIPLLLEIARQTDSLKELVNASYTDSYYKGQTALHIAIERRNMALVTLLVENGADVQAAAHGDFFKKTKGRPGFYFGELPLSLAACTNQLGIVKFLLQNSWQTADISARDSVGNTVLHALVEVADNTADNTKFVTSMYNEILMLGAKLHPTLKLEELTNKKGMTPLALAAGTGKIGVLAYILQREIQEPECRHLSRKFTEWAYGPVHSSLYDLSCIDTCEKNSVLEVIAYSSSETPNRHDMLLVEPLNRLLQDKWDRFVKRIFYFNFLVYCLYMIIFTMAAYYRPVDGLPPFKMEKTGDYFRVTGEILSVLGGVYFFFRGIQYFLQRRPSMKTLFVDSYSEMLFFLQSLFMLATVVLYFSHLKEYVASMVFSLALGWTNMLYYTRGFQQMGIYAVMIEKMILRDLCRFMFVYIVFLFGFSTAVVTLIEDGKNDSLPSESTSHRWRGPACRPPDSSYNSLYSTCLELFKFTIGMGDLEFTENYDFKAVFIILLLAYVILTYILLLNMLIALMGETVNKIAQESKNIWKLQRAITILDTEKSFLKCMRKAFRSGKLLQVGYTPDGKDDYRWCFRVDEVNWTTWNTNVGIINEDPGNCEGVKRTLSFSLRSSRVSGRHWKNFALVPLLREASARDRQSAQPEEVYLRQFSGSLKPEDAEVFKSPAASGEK
Assay type: cell-based
Protocol: Dulbecco's modified Eagle medium (D-MEM) (with 4.5 mg/mL glucose) and fetal bovine serum were obtained from Hyclone Laboratories, Inc. (Logan, Utah). Dulbecco's phosphate-buffered saline (D-PBS) (with 1 mg/mL glucose and 3.6 mg/l Na pyruvate, without phenol red), L-glutamine, hygromycin B, and Lipofectamine® were obtained from Life Technologies (Grand Island, N.Y.). G418 sulfate was obtained from Calbiochem-Novabiochem Corp. (San Diego, Calif.). Capsaicin (8-methyl-N-vanillyl-6-nonenamide) was obtained from Sigma-Aldrich, Co. (St. Louis, Mo.). Fluo-4 AM (N-[4-[6-[(acetyloxy)methoxy]-2,7-difluoro-3-oxo-3H-xanthen-9-yl]-2-[2-[2-[bis[2-[(acetyloxy)methoxy]-2-oxyethyl]amino]-5-methylphenoxy]ethoxy]phenyl]-N-[2-[(acetyloxy)methoxy]-2-oxyethyl]-glycine, (acetyloxy)methyl ester) was purchased from Molecular Probes (Eugene, Oreg.).
The cDNAs for the human TRPV1 receptor were isolated by reverse transcriptase-polymerase chain reaction (RT-PCR) from human small intestine poly A+RNA supplied by Clontech (Palo Alto, Calif.) using primers designed surrounding the initiation and termination codons identical to the published sequences (Hayes et al. Pain 2000, 88, 205-215). The resulting cDNA PCR products were subcloned into pCIneo mammalian expression vector (Promega) and fully sequenced using fluorescent dye-terminator reagents (Prism, Perkin-Elmer Applied Biosystems Division) and a Perkin-Elmer Applied Biosystems Model 373 DNA sequencer or Model 310 genetic analyzer. Expression plasmids encoding the hTRPV1 cDNA were transfected individually into 1321N1 human astrocytoma cells using Lipofectamine®. Forty-eight hours after transfection, the neomycin-resistant cells were selected with growth medium containing 800 μg/mL Geneticin (Gibco BRL). Surviving individual colonies were isolated and screened for TRPV1 receptor activity. Cells expressing recombinant homomeric TRPV1 receptors were maintained at 37° C. in D-MEM containing 4 mM L-glutamine, 300 μg/mL G418 (Cal-biochem) and 10% fetal bovine serum under a humidified 5% CO2 atmosphere.
The functional activity of compounds at the TRPV1 receptor was determined with a Ca^2+ influx assay and measurement of intracellular Ca^2+ levels ([Ca^2+]i). All compounds were tested over an 11-point half-log concentration range. Compound solutions were prepared in D-PBS (4× final concentration), and diluted serially across 96-well v-bottom tissue culture plates using a Biomek 2000 robotic automation workstation (Beckman-Coulter, Inc., Fullerton, Calif.). A 0.2 μM solution of the TRPV1 agonist capsaicin was also prepared in D-PBS. The fluorescent Ca^2+ chelating dye Fluo-4 AM was used as an indicator of the relative levels of [Ca^2+]i in a 96-well format using a Fluorescence Imaging Plate Reader (FLIPR) (Molecular Devices, Sunnyvale, Calif.). Cells were grown to confluency in 96-well black-walled tissue culture plates. Then, prior to the assay, the cells were loaded with 100 μL per well of Fluo-4 AM (2 μM, in D-PBS) for 1-2 hours at 23° C. Washing of the cells was performed to remove extracellular Fluo-4 AM (2×1 mL D-PBS per well), and afterward, the cells were placed in the reading chamber of the FLIPR instrument. 50 μL of the compound solutions were added to the cells at the 10 second time mark of the experimental run. Then, after a 3-minute time delay, 50 μL of the capsaicin solution was added at the, 190 second time mark (0.05 μM final concentration)(final volume=200 μL) to challenge the TRPV1 receptor. Time length of the experimental run was 240 seconds. Fluorescence readings were made at 1 to 5 second intervals over the course of the experimental run. The peak increase in relative fluorescence units (minus baseline) was calculated from the 190 second time mark to the end of the experimental run, and expressed as a percentage of the 0.05 μM capsaicin (control) response. […]
Work on `Cc1cccnc1N1CC=C(C(=O)Nc2ccc(C(F)(F)F)cc2)[C@@H](C)C1` (single isomer, unassigned) [Example 9] yielded an IC50 of 0.38 µM. Compound `C[C@H]1CN(c2ncccc2C(F)(F)F)CC=C1C(=O)Nc1ccc(C(F)(F)F)cc1` (single isomer, unassigned) [Example 10] has an IC50 of 0.48 µM. Work on `C[C@@H]1CN(c2ncccc2C(F)(F)F)CC=C1C(=O)Nc1ccc(S(=O)(=O)C(F)(F)F)cc1` (single isomer, unassigned) [Example 11] yielded an IC50 of 0.04 µM. `C[C@H]1CN(c2ncccc2C(F)(F)F)CC=C1C(=O)Nc1ccc(S(=O)(=O)C(F)(F)F)cc1` (single isomer, unassigned) [Example 12] was tested, and the IC50 was 0.64 µM. Compound `C[C@@H]1CN(c2ncccc2C(F)(F)F)CC=C1C(=O)Nc1ccc(C(C)(C)C#N)cc1` (single isomer, unassigned) [Example 13] has an IC50 of 0.089 µM. `C[C@H]1CN(c2ncccc2C(F)(F)F)CC=C1C(=O)Nc1ccc(C(C)(C)C#N)cc1` (single isomer, unassigned) [Example 14] was tested, and the IC50 was 0.71 µM. Compound `Cc1cccnc1N1CC=C(C(=O)Nc2ccc(C(C)(C)C)cc2)[C@H](C)C1` (single isomer, unassigned) [Example 15] has an IC50 of 0.015 µM. Compound `Cc1cccnc1N1CC=C(C(=O)Nc2ccc(C(C)(C)C)cc2)[C@@H](C)C1` (single isomer, unassigned) [Example 16] has an IC50 of 0.62 µM. `Cc1cccnc1N1CC=C(C(=O)Nc2ccc(C(C)(C)C#N)cc2)[C@H](C)C1` (single isomer, unassigned) [Example 17] was tested, and the IC50 was 0.013 µM. `Cc1cccnc1N1CC=C(C(=O)Nc2ccc(C(F)(F)F)nc2)[C@H](C)C1` (single isomer, unassigned) [Example 19] gave an IC50 of 0.19 µM. `Cc1cccnc1N1CC=C(C(=O)Nc2ccc(C(F)(F)F)nc2)[C@@H](C)C1` (single isomer, unassigned) [Example 20] showed an IC50 of 3.1 µM. For `C[C@@H]1CN(c2ncccc2Cl)CC=C1C(=O)Nc1ccc(S(=O)(=O)C(F)(F)F)cc1` [Example 1, (3S)-3′-chloro-3-methyl-N-{4-[(trifluoromethyl)sulfonyl]phenyl}-3,6-dihydro-2H-1,2′-bipyridine-4-carboxamide], the IC50 was 0.028 µM. `C[C@@H]1CN(c2ncccc2Cl)CC=C1C(=O)Nc1ccc(C(F)(F)F)cc1` [Example 2, (3S)-3′-chloro-3-methyl-N-[4-(trifluoromethyl)phenyl]-3,6-dihydro-2H-1,2′-bipyridine-4-carboxamide] showed an IC50 of 0.02 µM. Work on `Cc1cccnc1N1CC=C(C(=O)Nc2ccc(S(=O)(=O)C(F)(F)F)cc2)[C@H](C)C1` [Example 3, (3S)-3,3′-dimethyl-N-{4-[(trifluoromethyl)sulfonyl]phenyl}-3,6-dihydro-2H-1,2′-bipyridine-4-carboxamide] yielded an IC50 of 0.02 µM. `C[C@@H]1CN(c2ncccc2C(F)(F)F)CC=C1C(=O)Nc1ccc(C(F)(F)F)cc1` [Example 4, (3S)-3-methyl-3′-(trifluoromethyl)-N-[4-(trifluoromethyl)phenyl]-3,6-dihydro-2H-1,2′-bipyridine-4-carboxamide] was tested, and the IC50 was 0.026 µM. `C[C@H]1CN(c2ncccc2Cl)CC=C1C(=O)Nc1ccc(S(=O)(=O)C(F)(F)F)cc1` [Example 5, (3R)-3′-chloro-3-methyl-N-{4-[(trifluoromethyl)sulfonyl]phenyl}-3,6-dihydro-2H-1,2′-bipyridine-4-carboxamide] showed an IC50 of 0.23 µM. For `Cc1cccnc1N1CC=C(C(=O)Nc2ccc(S(=O)(=O)C(F)(F)F)cc2)[C@@H](C)C1` [Example 6, (3R)-3,3′-dimethyl-N-{4-[(trifluoromethyl)sulfonyl]phenyl}-3,6-dihydro-2H-1,2′-bipyridine-4-carboxamide], the IC50 was 0.76 µM. With `C[C@H]1CN(c2ncccc2Cl)CC=C1C(=O)Nc1ccc(C(F)(F)F)cc1` [Example 7, (3R)-3′-chloro-3-methyl-N-[4-(trifluoromethyl)phenyl]-3,6-dihydro-2H-1,2′-bipyridine-4-carboxamide] the IC50 was 0.084 µM. For `Cc1cccnc1N1CC=C(C(=O)Nc2ccc(C(F)(F)F)cc2)[C@H](C)C1` [Example 8, (3S)-3,3′-dimethyl-N-[4-(trifluoromethyl)phenyl]-3,6-dihydro-2H-1,2′-bipyridine-4-carboxamide], the IC50 was 0.063 µM. In the case of `Cc1cccnc1N1CC=C(C(=O)Nc2ccc(C(C)(C)C#N)cc2)[C@@H](C)C1` [Example 18, (3R)—N-(4-(2-cyanopropan-2-yl)phenyl)-3-methyl-1-(3-methylpyridin-2-yl)-1,2,3,6-tetrahydropyridine-4-carboxamide], the IC50 is reported as 1.3 µM.
